Experimental data taken from patent US20140187548A1, “6 SUBSTITUTED IMIDAZOPYRAZINES FOR USE AS MPS-1 AND TKK INHIBITORS IN THE TREATMENT OF HYPERPROLIFERATIVE DISORDERS” (BAYER INTELLECTUAL PROPERTY GMBH, priority 2010, published 2014).

Each compound was assayed against T1, human kinase Mps-1 (Homo sapiens, UniProt P33981) (assay: Mps-1 kinase assay (TR-FRET)). Settings: N-terminally GST-tagged human full length recombinant Mps-1; 10 μM ATP; 1 μM peptide substrate; 15 min pre-incubation; 60 min at 22° C.
T1 construct: N-terminally GST-tagged human full length recombinant Mps-1 kinase; GST (N); purchased Invitrogen, Karslruhe, Germany PV4071
T1 sequence (P33981 1-857): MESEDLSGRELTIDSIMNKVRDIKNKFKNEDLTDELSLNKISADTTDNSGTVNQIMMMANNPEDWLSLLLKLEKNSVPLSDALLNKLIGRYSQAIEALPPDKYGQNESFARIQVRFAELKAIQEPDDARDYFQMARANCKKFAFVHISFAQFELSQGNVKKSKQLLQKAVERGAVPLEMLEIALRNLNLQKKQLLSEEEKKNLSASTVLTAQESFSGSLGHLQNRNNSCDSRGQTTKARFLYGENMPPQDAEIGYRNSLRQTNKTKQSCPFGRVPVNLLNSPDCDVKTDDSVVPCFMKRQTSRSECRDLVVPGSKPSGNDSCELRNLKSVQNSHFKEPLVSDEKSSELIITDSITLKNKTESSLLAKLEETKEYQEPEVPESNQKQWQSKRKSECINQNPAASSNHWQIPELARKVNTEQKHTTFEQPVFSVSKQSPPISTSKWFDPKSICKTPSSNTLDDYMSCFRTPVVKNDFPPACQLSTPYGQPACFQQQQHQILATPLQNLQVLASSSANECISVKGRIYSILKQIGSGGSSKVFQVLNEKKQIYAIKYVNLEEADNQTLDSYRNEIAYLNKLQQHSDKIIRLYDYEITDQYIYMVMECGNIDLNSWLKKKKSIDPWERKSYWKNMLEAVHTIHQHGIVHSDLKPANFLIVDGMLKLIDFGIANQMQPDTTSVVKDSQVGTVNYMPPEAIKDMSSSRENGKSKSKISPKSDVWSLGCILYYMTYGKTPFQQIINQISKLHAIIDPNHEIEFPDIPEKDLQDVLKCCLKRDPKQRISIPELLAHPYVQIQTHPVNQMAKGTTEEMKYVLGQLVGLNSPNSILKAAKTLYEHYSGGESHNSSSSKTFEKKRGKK
Type: biochemical
Method in brief: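 N-terminally GST-tagged full-length recombinant human Mps-1, about 1 nM final, phosphorylates a biotinylated peptide. Product detected by TR-FRET from Eu-anti-phospho-Ser/Thr antibody to streptavidin-XLent after 1 h at 22° C.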

Cc1cc(-c2cnc3c(NCCC(F)(F)F)nc(-c4ccccc4CO)cn23)ccc1C(=O)NC1CC1 [Example 1-138, N-cyclopropyl-4-{6-[2-(hydroxymethyl)phenyl]-8-[(3,3,3-trifluoro-propyl)amino]imidazo[1,2-a]pyrazin-3-yl}-2-methylbenzamide] and O=C(NC1CC1)c1ccc(-c2cnc3c(NCCO)nc(-c4ccccc4)cn23)cc1 [Example 2-1, N-cyclopropyl-4-{8-[(2-hydroxyethyl)amino]-6-phenylimidazo[1,2-a]pyrazin-3-yl}benzamide] are within 1.5-fold of each other in IC50: 1.9 nM for the first, 2.7 nM for the second.

First: CCN(CC)CCNc1nc(-c2ccccc2)cn2c(-c3ccc(C(=O)NC4CC4)cc3)cnc12 [Example 2-2, N-cyclopropyl-4-(8-{[2-(diethylamino)ethyl]amino}-6-phenylimidazo[1,2-a]pyrazin-3-yl)benzamide]
Second: CCN(CC)CCCNc1nc(-c2ccccc2)cn2c(-c3ccc(C(=O)NC4CC4)cc3)cnc12 [Example 2-29, N-cyclopropyl-4-(8-{[3-(diethylamino)propyl]amino}-6-phenylimidazo[1,2-a]pyrazin-3-yl)benzamide]
The IC50 of the first is 3.2-fold higher: 47.7 nM for the first, 14.8 nM for the second. The second is the more potent here.

First: O=C(NC1CC1)c1ccc(-c2cnc3c(NCCCN4CCOCC4)nc(-c4ccccc4)cn23)cc1 [Example 2-3, N-cyclopropyl-4-(8-{[3-(morpholin-4-yl)propyl]amino}-6-phenylimidazo[1,2-a]pyrazin-3-yl)benzamide]
Second: O=C(NC1CC1)c1ccc(-c2cnc3c(NCCN4CCCC4)nc(-c4ccccc4)cn23)cc1 [Example 2-25, N-cyclopropyl-4-(6-phenyl-8-{[2-(pyrrolidin-1-yl)ethyl]amino}imidazo[1,2-a]pyrazin-3-yl)benzamide]
The IC50 of the first is 4-fold lower: 6.9 nM for the first, 27.4 nM for the second.

Going from CC(C)CCNc1nc(-c2ccccc2)cn2c(-c3ccc(C(=O)NC4CC4)cc3)cnc12 [Example 2-4, N-cyclopropyl-4-{8-[(3-methylbutyl)amino]-6-phenylimidazo[1,2-a]pyrazin-3-yl}benzamide] to COCCNc1nc(-c2ccccc2)cn2c(-c3ccc(C(=O)NC4CC4)cc3)cnc12 [Example 2-12, N-cyclopropyl-4-{8-[(2-methoxyethyl)amino]-6-phenylimidazo[1,2-a]pyrazin-3-yl}benzamide], the IC50 falls from 3.2 nM to 1.7 nM (1.9-fold).

Going from Cc1ccccc1CNc1nc(-c2ccccc2)cn2c(-c3ccc(C(=O)NC4CC4)cc3)cnc12 [Example 2-5, N-cyclopropyl-4-{8-[(2-methylbenzyl)amino]-6-phenylimidazo[1,2-a]pyrazin-3-yl}benzamide] to O=C(NC1CC1)c1ccc(-c2cnc3c(NCc4ccccc4F)nc(-c4ccccc4)cn23)cc1 [Example 2-13, N-cyclopropyl-4-{8-[(2-fluorobenzyl)amino]-6-phenylimidazo[1,2-a]pyrazin-3-yl}benzamide], the IC50 falls from 6.5 nM to 1.4 nM (4.6-fold). The second is the more potent here.

Compared with O=C(NC1CC1)c1ccc(-c2cnc3c(NCc4cccc(Cl)c4)nc(-c4ccccc4)cn23)cc1 [Example 2-6, 4-{8-[(3-chlorobenzyl)amino]-6-phenylimidazo [1,2-a]pyrazin-3-yl}-N-cyclopropylbenzamide], O=C(NC1CC1)c1ccc(-c2cnc3c(NCc4ccccc4)nc(-c4ccccc4)cn23)cc1 [Example 2-15, 4-[8-(benzylamino)-6-phenylimidazo[1,2-a]pyrazin-3-yl]-N-cyclopropyl-benzamide] is 3.6-fold lower in IC50: 13.8 nM for the first, 3.8 nM for the second. The second is the more potent here.

Going from O=C(NC1CC1)c1ccc(-c2cnc3c(NCCc4ccccc4)nc(-c4ccccc4)cn23)cc1 [Example 2-7, N-cyclopropyl-4-{6-phenyl-8-[(2-phenylethyl)amino]imidazo[1,2-a]pyrazin-3-yl} benzamide] to O=C(NC1CC1)c1ccc(-c2cnc3c(NCCc4ccccn4)nc(-c4ccccc4)cn23)cc1 [Example 2-24, N-cyclopropyl-4-(6-phenyl-8-{[2-(pyridin-2-yl)ethyl]amino}imidazo[1,2-a]pyrazin-3-yl) benzamide], the IC50 falls from 25 nM to 10.3 nM (2.4-fold). The second is the more potent here.

O=C(NC1CC1)c1ccc(-c2cnc3c(NCC4CCCO4)nc(-c4ccccc4)cn23)cc1 (stereo not shown) [Example 2-8, N-cyclopropyl-4-{6-phenyl-8-[(tetrahydrofuran-2-ylmethyl)amino]imidazo[1,2-a]pyrazin-3-yl}benzamide] and O=C(NC1CC1)c1ccc(-c2cnc3c(NCC4CC4)nc(-c4ccccc4)cn23)cc1 [Example 2-23, N-cyclopropyl-4-{8-[(cyclo-propylmethyl)amino]-6-phenylimidazo[1,2-a]pyrazin-3-yl}benzamide] are within 1.5-fold of each other in IC50: 2.1 nM for the first, 2.7 nM for the second.

Going from O=C(NC1CC1)c1ccc(-c2cnc3c(NCCCN4CCCC4=O)nc(-c4ccccc4)cn23)cc1 [Example 2-9, N-cyclopropyl-4-(8-{[3-(2-oxopyrrolidin-1-yl)propyl]amino}-6-phenylimidazo[1,2-a]pyrazin-3-yl)benzamide] to O=C(NC1CC1)c1ccc(-c2cnc3c(NCCCO)nc(-c4ccccc4)cn23)cc1 [Example 2-17, N-cyclopropyl-4-{8-[(3-hydroxypropyl)amino]-6-phenylimidazo[1,2-a]pyrazin-3-yl}benzamide], the IC50 falls from 4.8 nM to 1.6 nM (3-fold).

Compared with CN1CCCC1CCNc1nc(-c2ccccc2)cn2c(-c3ccc(C(=O)NC4CC4)cc3)cnc12 (stereo not shown) [Example 2-10, N-cyclopropyl-4-(8-{[2-(1-methylpyrrolidin-2-yl)ethyl]amino}-6-phenylimidazo[1,2-a]pyrazin-3-yl)benzamide], O=C(NC1CC1)c1ccc(-c2cnc3c(NCCN4CCCCC4)nc(-c4ccccc4)cn23)cc1 [Example 2-11, N-cyclopropyl-4-(6-phenyl-8-{[2-(piperidin-1-yl)ethyl]amino}imidazo[1,2-a]pyrazin-3-yl)benzamide] is 1.9-fold higher in IC50: 16.6 nM for the first, 31.6 nM for the second.

Compared with O=C(NC1CC1)c1ccc(-c2cnc3c(NCc4ccc(F)cc4)nc(-c4ccccc4)cn23)cc1 [Example 2-14, N-cyclopropyl-4-{8-[(4-fluorobenzyl)amino]-6-phenylimidazo[1,2-a]pyrazin-3-yl}benzamide], O=C(NC1CC1)c1ccc(-c2cnc3c(NCc4ccc(C(F)(F)F)cc4)nc(-c4ccccc4)cn23)cc1 [Example 2-20, N-cyclopropyl-4-(6-phenyl-8-{[4-(trifluoromethyl)benzyl]amino}imidazo[1,2-a]pyrazin-3-yl)benzamide] is 13-fold higher in IC50: 2.9 nM for the first, 38.6 nM for the second.

Going from CCNc1nc(-c2ccccc2)cn2c(-c3ccc(C(=O)NC4CC4)cc3)cnc12 [Example 2-16, N-cyclopropyl-4-[8-(ethylamino)-6-phenylimidazo [1,2-a]pyrazin-3-yl]benzamide] to NC(=O)CNc1nc(-c2ccccc2)cn2c(-c3ccc(C(=O)NC4CC4)cc3)cnc12 [Example 2-30, 4-{8-[(2-amino-2-oxoethyl)amino]-6-phenylimidazo[1,2-a]pyrazin-3-yl}-N-cyclopropyl-benzamide], the IC50 rises from 3.3 nM to 19 nM (5.8-fold). The first is the more potent here.

Going from CN(C)CCCNc1nc(-c2ccccc2)cn2c(-c3ccc(C(=O)NC4CC4)cc3)cnc12 [Example 2-18, N-cyclopropyl-4-(8-{[3-(dimethylamino)propyl]amino}-6-phenylimidazo[1,2-a]pyrazin-3-yl)benzamide] to CC(=O)NCCNc1nc(-c2ccccc2)cn2c(-c3ccc(C(=O)NC4CC4)cc3)cnc12 [Example 2-19, 4-(8-{[2-(acetylamino)ethyl]amino}-6-phenylimidazo[1,2-a]pyrazin-3-yl)-N-cyclopropyl-benzamide], the IC50 falls from 26.8 nM to 8.1 nM (3.3-fold). The second is the more potent here.

Going from NS(=O)(=O)c1ccc(CCNc2nc(-c3ccccc3)cn3c(-c4ccc(C(=O)NC5CC5)cc4)cnc23)cc1 [Example 2-21, N-cyclopropyl-4-(6-phenyl-8-{[2-(4-sulfamoylphenyl)ethyl]amino}imidazo[1,2-a]pyrazin-3-yl)benzamide] to NS(=O)(=O)c1ccc(CNc2nc(-c3ccccc3)cn3c(-c4ccc(C(=O)NC5CC5)cc4)cnc23)cc1 [Example 2-26, N-cyclopropyl-4-{6-phenyl-8-[(4-sulfamoylbenzyl)amino]imidazo[1,2-a]pyrazin-3-yl}benzamide], the IC50 falls from 9.1 nM to 5.6 nM (1.6-fold).

Compared with O=C(NC1CC1)c1ccc(-c2cnc3c(NCc4ccc(OC(F)(F)F)cc4)nc(-c4ccccc4)cn23)cc1 [Example 2-22, N-cyclopropyl-4-(6-phenyl-8-{[4-(trifluoromethoxy)benzyl]amino}imidazo[1,2-a]pyrazin-3-yl)benzamide], O=C(NC1CC1)c1ccc(-c2cnc3c(NCc4cccnc4)nc(-c4ccccc4)cn23)cc1 [Example 2-28, N-cyclopropyl-4-{6-phenyl-8-[(pyridin-3-ylmethyl)amino]imidazo[1,2-a]pyrazin-3-yl} benzamide] is 99-fold lower in IC50: 217 nM for the first, 2.2 nM for the second. The second is the more potent here.

With O=C(NC1CC1)c1ccc(-c2cnc3c(NCc4ccccn4)nc(-c4ccccc4)cn23)cc1 [Example 2-27, N-cyclopropyl-4-{6-phenyl-8-[(pyridin-2-ylmethyl)amino]imidazo[1,2-a]pyrazin-3-yl} benzamide] the IC50 was 3.3 nM.
